Measurements as given in patent publication US20230117324A1, “OXAZINE MONOACYLGLYCEROL LIPASE (MAGL) INHIBITORS” (Hoffmann-La Roche Inc., priority 2018, published 2023).

The compounds below were run against T1, MAGL (Homo sapiens, UniProt Q99685) (assay: MAGL inhibition, 2-AG assay (hydrolysis of 2-arachidonoylglycerol, arachidonic acid by mass spectrometry)). Details: 2-AG assay (footnote [b]).
T1 sequence (Q99685 1-303): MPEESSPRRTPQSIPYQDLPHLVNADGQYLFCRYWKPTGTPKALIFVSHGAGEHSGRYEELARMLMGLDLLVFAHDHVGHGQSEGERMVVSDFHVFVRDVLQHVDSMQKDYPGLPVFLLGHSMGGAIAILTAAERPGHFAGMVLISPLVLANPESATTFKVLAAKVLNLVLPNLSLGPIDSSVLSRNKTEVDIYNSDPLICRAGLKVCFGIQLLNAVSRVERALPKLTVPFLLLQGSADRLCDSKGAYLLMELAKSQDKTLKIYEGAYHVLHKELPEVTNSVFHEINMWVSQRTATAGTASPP
Assay type: biochemical
Summary of the method: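 Human MAGL […] was preincubated 15 min at RT with compound ([…], 3-fold steps) in 50 mM Tris, 1 mM EDTA, 0.01% Tween. 2-AG (8 μM) was then added for 30 min at RT. Arachidonic acid was quantified by RapidFire SPE–triple quadrupole MS in negative ESI as its ratio to a d8-arachidonic acid standard.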
`O=C1CO[C@H]2CCN(C(=O)N3CCC(C(c4ccccc4)c4cccnn4)CC3)C[C@H]2N1` (stereo partly drawn) [Example 218, (4aR,8aS)-6-[4-[Phenyl(pyridazin-3-yl)methyl]piperidine-1-carbonyl]-4,4a,5,7,8,8a-hexahydropyrido[4,3-b][1,4]oxazin-3-one] showed an IC50 of 54 nM. For `O=C1CO[C@H]2CCN(C(=O)N3CCC(c4ccc(OC(F)(F)F)cc4)C3)C[C@H]2N1` (stereo partly drawn) [Example 219, (4aR,8aS)-6-[3-[4-(Trifluoromethoxy)phenyl]pyrrolidine-1-carbonyl]-4,4a,5,7,8,8a-hexahydropyrido[4,3-b][1,4]oxazin-3-one], the IC50 was 276 nM. For `Cn1ncc2ccc(C3CN(C(=O)N4CC[C@@H]5OCC(=O)N[C@@H]5C4)C3)cc21` [Example 220, (4aR,8aS)-6-(3-(1-Methyl-1H-indazol-6-yl)azetidine-1-carbonyl)hexahydro-2H-pyrido[4,3-b][1,4]oxazin-3(4H)-one], the IC50 was 413 nM. Compound `O=C1CO[C@H]2CCN(C(=O)N3CC(c4ccc(O)c(Cl)c4)C3)C[C@H]2N1` [Example 223, (4aR,8aS)-6-(3-(3-Chloro-4-hydroxyphenyl)azetidine-1-carbonyl)hexahydro-2H-pyrido[4,3-b][1,4]oxazin-3(4H)-one] has an IC50 of 188 nM. With `CC1CN(c2ccc(C3CN(C(=O)N4CC[C@@H]5OCC(=O)N[C@@H]5C4)C3)cc2Cl)C1` [Example 224, (4aR,8aS)-6-(3-(3-Chloro-4-(3-methylazetidin-1-yl)phenyl)azetidine-1-carbonyl)hexahydro-2H-pyrido[4,3-b][1,4]oxazin-3(4H)-one] the IC50 was 6 nM. Work on `O=C1CO[C@H]2CCN(C(=O)N3CC(c4ccc(C5COC5)cc4)C3)C[C@H]2N1` [Example 225, (4aR,8aS)-6-[3-[4-(Oxetan-3-yl)phenyl]azetidine-1-carbonyl]-4,4a,5,7,8,8a-hexahydropyrido[4,3-b][1,4]oxazin-3-one] yielded an IC50 of 100 nM. `O=C1CO[C@H]2CCN(C(=O)N3CC(c4ccc(N5CC(F)(F)C5)c(Cl)c4)C3)C[C@H]2N1` [Example 226, (4aR,8aS)-6-(3-(3-Chloro-4-(3,3-difluoroazetidin-1-yl)phenyl)azetidine-1-carbonyl)hexahydro-2H-pyrido[4,3-b][1,4]oxazin-3(4H)-one] was tested, and the IC50 was 19 nM. For `CC1CN(c2cc(C3CN(C(=O)N4CC[C@@H]5OCC(=O)N[C@@H]5C4)C3)ccc2OC(F)(F)F)C1` [Example 227, (4aR,8aS)-6-(3-(3-(3-Methylazetidin-1-yl)-4-(trifluoromethoxy)phenyl)azetidine-1-carbonyl)hexahydro-2H-pyrido[4,3-b][1,4]oxazin-3(4H)-one], the IC50 was 14 nM. For `O=C1CO[C@H]2CCN(C(=O)N3CC(c4ccc(N5CC6CC(C6)C5)cc4)C3)C[C@H]2N1` [Example 230, (4aR,8aS)-6-[3-[4-(3-Azabicyclo[3.1.1]heptan-3-yl)phenyl]azetidine-1-carbonyl]-4,4a,5,7,8,8a-hexahydropyrido[4,3-b][1,4]oxazin-3-one], the IC50 was 0.2 nM. `CC1C(c2ccc(OC(F)(F)F)cc2)CN1C(=O)N1CC[C@@H]2OCC(=O)N[C@@H]2C1` (stereo partly drawn) [Example 231, (4aR,8aS)-6-(2-Methyl-3-(4-(Trifluoromethoxy)phenyl)azetidine-1-carbonyl)hexahydro-2H-pyrido[4,3-b][1,4]oxazin-3(4H)-one] gave an IC50 of 114 nM. For `CC1(C)COc2cc(C3CN(C(=O)N4CC[C@@H]5OCC(=O)N[C@@H]5C4)C3)ccc21` [Example 232, (4aR,8aS)-6-(3-(3,3-Dimethyl-2,3-dihydrobenzofuran-6-yl)azetidine-1-carbonyl)hexahydro-2H-pyrido[4,3-b][1,4]oxazin-3(4H)-one], the IC50 was 7 nM. In the case of `O=C1CO[C@H]2CCN(C(=O)N3CCC(c4cc(Cl)cc(OCC(F)(F)F)c4)C3)C[C@H]2N1` (stereo partly drawn) [Example 233, (4aR,8aS)-6-(3-(3-Chloro-5-(2,2,2-trifluoroethoxy)phenyl)pyrrolidine-1-carbonyl)hexahydro-2H-pyrido[4,3-b][1,4]oxazin-3(4H)-one], the IC50 is reported as 61 nM. `COC(=O)C(C)(C)c1ccc(C2CN(C(=O)N3CC[C@@H]4OCC(=O)N[C@@H]4C3)C2)cc1` [Example 234, Methyl 2-methyl-2-(4-(1-((4aR,8aS)-3-Oxooctahydro-2H-pyrido[4,3-b][1,4]oxazine-6-carbonyl)azetidin-3-yl)phenyl)propanoate] showed an IC50 of 2 nM. Work on `O=C1CO[C@H]2CCN(C(=O)N3CCC(c4cc(Cl)cc(Cl)c4)C3)C[C@H]2N1` (stereo partly drawn) [Example 235, (4aR,8aS)-6-(3-(3,5-Dichlorophenyl)pyrrolidine-1-carbonyl)hexahydro-2H-pyrido[4,3-b][1,4]oxazin-3(4H)-one] yielded an IC50 of 243 nM. `COC1(C)CN(c2ccc(C3CN(C(=O)N4CC[C@@H]5OCC(=O)N[C@@H]5C4)C3)cc2)C1` [Example 236, (4aR,8aS)-6-(3-(4-(3-Methoxy-3-methylazetidin-1-yl)phenyl)azetidine-1-carbonyl)hexahydro-2H-pyrido[4,3-b][1,4]oxazin-3(4H)-one] was tested, and the IC50 was 15 nM. In the case of `CC(C)(C)OC(=O)NCCOc1cccc(C(c2ccccc2)C2CCN(C(=O)N3CC[C@@H]4OCC(=O)N[C@@H]4C3)CC2)c1` (stereo partly drawn) [Example 237, tert-Butyl (2-(3-((1-((4aR,8aS)-3-oxooctahydro-2H-pyrido[4,3-b][1,4]oxazine-6-carbonyl)piperidin-4-yl)(phenyl)methyl)phenoxy)ethyl)carbamate], the IC50 is reported as 1 nM. For `COc1cc(C2CN(C(=O)N3CC[C@@H]4OCC(=O)N[C@@H]4C3)C2)ccc1C(C)(C)C` [Example 240, (4aR,8aS)-6-(3-(4-(tert-Butyl)-3-methoxyphenyl)azetidine-1-carbonyl)hexahydro-2H-pyrido[4,3-b][1,4]oxazin-3(4H)-one], the IC50 was 2 nM. Compound `Cn1ncc2cc(C3CN(C(=O)N4CC[C@@H]5OCC(=O)N[C@@H]5C4)C3)ccc21` [Example 241, (4aR,8aS)-6-(3-(1-Methyl-1H-indazol-5-yl)azetidine-1-carbonyl)hexahydro-2H-pyrido[4,3-b][1,4]oxazin-3(4H)-one] has an IC50 of 245 nM. For `CCCc1ccc(C2CN(C(=O)N3CC[C@@H]4OCC(=O)N[C@@H]4C3)C2)cc1` [Example 242, (4aR,8aS)-6-(3-(4-Propylphenyl)azetidine-1-carbonyl)hexahydro-2H-pyrido[4,3-b][1,4]oxazin-3(4H)-one], the IC50 was 2 nM. `O=C1CO[C@H]2CCN(C(=O)N3CC(c4ccc(OC(F)(F)F)c(C(F)(F)F)c4)C3)C[C@H]2N1` [Example 243, (4aR,8aS)-6-(3-(4-(Trifluoromethoxy)-3-(trifluoromethyl)phenyl)azetidine-1-carbonyl)hexahydro-2H-pyrido[4,3-b][1,4]oxazin-3(4H)-one] was tested, and the IC50 was 10 nM. Compound `O=C1CO[C@H]2CCN(C(=O)N3CC(c4ccc(OCC5(C(F)(F)F)CC5)cc4)C3)C[C@H]2N1` [Example 244, (4aR,8aS)-6-[3-[4-[[1-(Trifluoromethyl)cyclopropyl]methoxy]phenyl]azetidine-1-carbonyl]-4,4a,5,7,8,8a-hexahydropyrido[4,3-b][1,4]oxazin-3-one] has an IC50 of 0.3 nM. With `CC(C)(c1ccc(C2CN(C(=O)N3CC[C@@H]4OCC(=O)N[C@@H]4C3)C2)cc1)C(F)(F)F` [Example 245, (4aR,8aS)-6-[3-[4-(2,2,2-Trifluoro-1,1-dimethyl-ethyl)phenyl]azetidine-1-carbonyl]-4,4a,5,7,8,8a-hexahydropyrido[4,3-b][1,4]oxazin-3-one] the IC50 was 0.4 nM. With `O=C1CO[C@H]2CCN(C(=O)N3CC(c4ccc(CCCF)cc4)C3)C[C@H]2N1` [Example 247, (4aR,8aS)-6-[3-[4-(3-Fluoropropyl)phenyl]azetidine-1-carbonyl]-4,4a,5,7,8,8a-hexahydropyrido[4,3-b][1,4]oxazin-3-one] the IC50 was 6 nM. For `COc1cc(C2CN(C(=O)N3CC[C@@H]4OCC(=O)N[C@@H]4C3)C2)ccc1C` [Example 250, (4aR,8aS)-6-[3-(3-Methoxy-4-methyl-phenyl)azetidine-1-carbonyl]-4,4a,5,7,8,8a-hexahydropyrido[4,3-b][1,4]oxazin-3-one], the IC50 was 106 nM. Compound `Cn1nc(OC(c2ccc(F)cc2)C2CCN(C(=O)N3CC[C@@H]4OCC(=O)N[C@@H]4C3)CC2)cc1C(F)(F)F` (stereo partly drawn) [Example 251, (4aR,8aS)-6-(4-((4-Fluorophenyl)((1-methyl-5-(trifluoromethyl)-1H-pyrazol-3-yl)oxy)methyl)piperidine-1-carbonyl)hexahydro-2H-pyrido[4,3-b][1,4]oxazin-3(4H)-one] has an IC50 of 1 nM. `NCCOc1cccc(C(c2ccccc2)C2CCN(C(=O)N3CC[C@@H]4OCC(=O)N[C@@H]4C3)CC2)c1` (stereo partly drawn) [Example 252, (4aR,8aS)-6-[4-[[3-(2-Aminoethoxy)phenyl]-phenyl-methyl]piperidine-1-carbonyl]-4,4a,5,7,8,8a-hexahydropyrido[4,3-b][1,4]oxazin-3-one] gave an IC50 of 2 nM. In the case of `O=C1CO[C@H]2CCN(C(=O)N3CC(c4nnc(-c5ccc(Cl)cc5Cl)o4)C3)C[C@H]2N1` [Example 253, (4aR,8aS)-6-[3-[5-(2,4-Dichlorophenyl)-1,3,4-oxadiazol-2-yl]azetidine-1-carbonyl]-4,4a,5,7,8,8a-hexahydropyrido[4,3-b][1,4]oxazin-3-one], the IC50 is reported as 4 nM. `O=C1CO[C@H]2CCN(C(=O)N3CC(c4ccc(C(F)(F)F)c(F)c4)C3)C[C@H]2N1` [Example 254] was tested, and the IC50 was 82 nM.
